Experimental data taken from US20100273872A1, “USE OF 4-OXOBUTANOIC ACID DERIVATIVES IN THE TREATMENT OF PATHOLOGIES ASSOCIATED WITH IMMUNOLOGICAL DISORDERS” (priority 2007, published 2010).
Marks after values point to notes of the source that are not given here.

Tested on: humoral immunity in rats (splenocytes producing anti-sheep erythrocyte antibodies)
Experiment: Direct haemolytic plaque (plaque-forming cells, PFC) test after immunisation with sheep erythrocytes
Type: in vivo, male Wistar rats
Conditions: rat; for % inhibition: haemolytic plaques (PFC)
Method: The immunosuppressive activity was evaluated by studying the humoral immunity in rats through the quantification of direct haemolytic plaques (“plaque-forming cells”—PFC) after immunisation with sheep erythrocytes.
This technique consists in stimulating the immune system with an anti-genic agent, the sheep erythrocytes, and in evaluating the effect of a substance on the immune response. This immune response is evaluated by measuring the proportion of splenocytes that produce anti-sheep erythrocyte antibodies in the presence of a complement (Jerne N. K., 1974).
The effect of the compounds, in suspension in methylcellulose hydrogel (Sigma ref: M0512), on the immune system was evaluated in male Wistar rats after oral administration for 5 and 7 days (5 days before sensitisation and 2 days after). The administration volume was 10 ml/kg.
10 rats were used in each group, each group corresponding to a dose of a compound, plus a control group (blank) and a positive control group (reference substance). The reference substance used was cyclophosphamide (monohydrate) from Sigma (ref: C0768) at a dose of 20 mg/kg administrated subcutaneously at a rate of 1 ml/kg, only administrated on the fifth day. During the four previous days, the animals were treated with the compound vehicle (methylcellulose).
On the fifth day, one hour after treatment, the animals were sensitised with sheep erythrocytes administrated intravenously (caudal vein), at a rate of 0.5 ml per animal. The sheep erythrocytes were suspended at a concentration of 2×10^9 cells/ml in a sodium chloride solution (isotonic).
On the ninth day, i.e. 4 days after sensitisation, the spleen was removed after euthanasia by exsanguination (section of the abdominal aorta) of the animals, which were previously anaesthetised with pentobarbital (Sanofi, 60 mg/kg).
Half of the spleen was broken up (ground), giving, after preparation, a suspension of splenocytes in PBS buffer (Dulbecco Gibco Ref: 3018199) containing 10^7 cells per millilitre.
The haemolytic plaque (PFC) reaction was induced by addition of 50 microlitres of the splenocyte suspension obtained for each animal in 200 microlitres of a suspension of PBS comprising complement and sheep erythrocytes.
The mixture, placed between the slide (holder) and cover slip creating an evaluation chamber (40 μl) delimited by paraffin, was incubated for one hour at 37° C.
At the end of the incubation, the slides were immediately placed flat at 4° C. The evaluation was performed as soon as possible. The number of haemolytic plaques (PFC) was determined by a standardised method of slide evaluation using an optical microscope. A haemolytic plaque (PFC) is a plaque where only one trapped splenocyte can be observed. The number of haemolytic plaques (PFC) is calculated for 10^6 spleen cells.

SMILES | % inhibition (1st experiment, 30 mg/Kg oral, treatment for 5 days before sensitisation) [%] | % inhibition (1st experiment, 100 mg/Kg oral, treatment for 5 days before sensitisation) | % inhibition (1st experiment, 300 mg/Kg oral, treatment for 5 days before sensitisation) | % inhibition (2nd experiment, 0.01 mg/Kg oral, treatment for 7 days (5 days before sensitisation and 2 days after)) [%] | % inhibition (2nd experiment, 0.1 mg/Kg oral, treatment for 7 days (5 days before sensitisation and 2 days after)) | % inhibition (2nd experiment, 1 mg/Kg oral, treatment for 7 days (5 days before sensitisation and 2 days after)) | dose giving a statistically significant decrease in the number of haemolytic plaques (PFC) (oral, decrease in the humoral immune response) [mg/kg] | effect in relation to the treatment phase (treatment before sensitisation only vs. also after sensitisation) | % inhibition (1st experiment, cyclophosphamide 20 mg/Kg subcutaneously, only on the fifth day) | % inhibition (2nd experiment, cyclophosphamide 20 mg/Kg subcutaneously, only on the fifth day)
O=C(CC(Cc1ccccc1)C(=O)O)c1ccc(F)cc1 (single isomer, unassigned; (-)) [Molecule A, (−) 4-(4-Fluorophenyl)-4-oxo-2-phenylmethylbutanoic acid] | 3 | 19** % | 29** % | 0 | 43 * % | 42** % | ≥ 0.1 | stronger effect after the sensitisation phase |  | 
O=P1(N(CCCl)CCCl)NCCCO1 (stereo not shown) [Cyclophosphamide, cyclophosphamide, reference compound] |  |  |  |  |  |  |  |  | 85** % | 54** %
